From US8680052B1, “Methods of treating, reducing the incidence of, and/or preventing ischemic events” (The Medicines Company, priority 2013, dated 2014)

Legend:
platelets = assay: Example 4: platelet activation measured by flow cytometry; type: in vivo, human; conditions: P-selectin expression, 1 μM ADP
Description: The study involved 12 patients who met the criteria of being 18-75 years of age, having coronary artery disease (CAD) documented by a previous MI or coronary revascularization, and taking 81 mg of aspirin daily. […] Prohibited concomitant medications included strong and potent CYP3A inhibitors, simvastatin and lovastatin at doses more than 40 mg/day, omeprazole or esomeprazole, and digoxin. Use of non-steroidal anti-inflammatory agents was discouraged during study participation but not prohibited.
(§1) Each patient was administered a 30 μg/kg bolus of cangrelor followed immediately by a 2 hr infusion at a rate of 4.0 μg/kg/min. A loading dose of ticagrelor (180 mg) was given after 0.5 hr or 1.25 hr (n=6 for each). Blood for pharmacodynamic platelet function studies was taken after 0.5 or 1.25 hr (corresponding to the time of ticagrelor load, n=6 for each), and then at 1.75, 2, 2.25, 2.5, 2.75, 3, 4, and 5.25 hr. Patients were assigned randomly to receive either 6 (n=6) or 7 (n=6) doses of ticagrelor to be taken every 12 hours following the discontinuation of the infusion of cangrelor. On study day 5, each patient was administered a 30 μg/kg bolus of cangrelor followed immediately by a 2 hr infusion at a rate of 4.0 μg/kg/min. Blood for pharmacodynamic assessment was taken after 1 and 2 hr. Adverse events were queried throughout study participation that ended with a telephone interview performed on study day 10-12.
(§2) Pharmacodynamic assessment included light transmission aggregometry (LTA), VerifyNow® P2Y12 assay, vasodilator-stimulated phosphoprotein (VASP) index, and platelet activation measured with the use of flow cytometry. Assessment of LTA, VerifyNow®, and platelet activation with the use of flow cytometry was performed within 30 min of blood being taken. In the case of flow cytometry, samples were processed to fixation and then batched for analysis. For VASP, index samples were batched and processed as recommended by the vendor within 2 h of blood being taken. This approach limited the time from fixation of VASP index to flow analysis to less than 1 h.
(§3) LTA induced by 5 μM and 20 μM adenosine diphosphate (ADP) was quantified ex vivo (i.e. in non-adjusted platelet rich plasma). Platelet-poor plasma was set as 100% aggregation, and both maximal (peak) and terminal (at 300 s) aggregation were measured with a PAP4 aggregometer (BioData, Horsham, Pa.). VerifyNow® P2Y12 assay (Accumetrics Inc, San Diego, Calif.) that measures the effects of drugs on the P2Y12 receptor by activating platelets with prostaglandin El in addition to ADP was used in accordance with the instructions provided by the manufacturer. Platelet reactivity was expressed in P2Y12 reaction units (PRU). Activation of platelets was identified with the use of flow cytometry as previously described.^17. And to determine the VASP index, a commercially available kit (Diagnostica Stago, Inc, Parsippany NJ) was used. ^17 Schneider D J, Sobel B E. Streamlining the design of promising clinical trials: in-vitro testing of antithrombotic regimens and multiple agonists of platelet activation. Coron Artery Dis. 2009; 20:175-8.

P2Y12 receptor = biological target: T1, P2Y12 receptor (Homo sapiens, UniProt Q9H244); assay: Example 4: VerifyNow P2Y12 assay, platelet reactivity in PRU; type: in vivo
T1 construct: from tissue; host or cells: platelets in whole blood of patients
Description: The study involved 12 patients who met the criteria of being 18-75 years of age, having coronary artery disease (CAD) documented by a previous MI or coronary revascularization, and taking 81 mg of aspirin daily. […] Use of non-steroidal anti-inflammatory agents was discouraged during study participation but not prohibited.
as §1, §2, §3

[1] = reference 5.25 h, Ticagrelor at 0.5 h
[2] = reference 5.25 h, Ticagrelor at 1.25 h

T1 sequence (Q9H244 whole entry): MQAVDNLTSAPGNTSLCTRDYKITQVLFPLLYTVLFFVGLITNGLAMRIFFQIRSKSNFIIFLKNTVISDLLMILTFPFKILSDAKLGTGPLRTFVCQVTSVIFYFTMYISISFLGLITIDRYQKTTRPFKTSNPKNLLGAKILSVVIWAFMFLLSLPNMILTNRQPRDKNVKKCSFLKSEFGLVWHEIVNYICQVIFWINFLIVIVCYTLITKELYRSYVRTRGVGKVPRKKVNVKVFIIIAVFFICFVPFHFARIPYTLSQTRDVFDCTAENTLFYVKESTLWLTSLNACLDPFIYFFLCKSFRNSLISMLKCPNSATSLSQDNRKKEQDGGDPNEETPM

CCCSc1nc(N[C@@H]2C[C@H]2c2ccc(F)c(F)c2)c2nnn([C@@H]3C[C@H](OCCO)[C@@H](O)[C@H]3O)c2n1 [ticagrelor]
Flow Cytometry IPR (platelets; 2.25 h, All): 84 ± 8
Flow Cytometry PR (platelets; 2.25 h, All): 7.8 ± 3.7
Flow Cytometry IPR (platelets; 2.25 h, Ticagrelor at 0.5 h): 86 ± 8
Flow Cytometry PR (platelets; 2.25 h, Ticagrelor at 0.5 h): 7.5 ± 2.4
Flow Cytometry IPR (platelets; 2.25 h, Ticagrelor at 1.25 h): 83 ± 9
Flow Cytometry PR (platelets; 2.25 h, Ticagrelor at 1.25 h): 8 ± 4.9
Flow Cytometry IPR (platelets; 2.5 h, All): 67 ± 29
Flow Cytometry PR (platelets; 2.5 h, All): 14 ± 8.6
Flow Cytometry IPR (platelets; 2.5 h, Ticagrelor at 0.5 h): 81 ± 17
Flow Cytometry PR (platelets; 2.5 h, Ticagrelor at 0.5 h): 9.2 ± 5.9
Flow Cytometry IPR (platelets; 2.5 h, Ticagrelor at 1.25 h): 53 ± 34
Flow Cytometry PR (platelets; 2.5 h, Ticagrelor at 1.25 h): 19 ± 8.5
Flow Cytometry IPR (platelets; 2.75 h, All): 80 ± 17
Flow Cytometry PR (platelets; 2.75 h, All): 8.8 ± 5.6
Flow Cytometry IPR (platelets; 2.75 h, Ticagrelor at 0.5 h): 82 ± 13
Flow Cytometry PR (platelets; 2.75 h, Ticagrelor at 0.5 h): 9.3 ± 4.7
Flow Cytometry IPR (platelets; 2.75 h, Ticagrelor at 1.25 h): 79 ± 22
Flow Cytometry PR (platelets; 2.75 h, Ticagrelor at 1.25 h): 8.3 ± 6.9
Flow Cytometry IPR (platelets; 3 h, All): 86 ± 13
Flow Cytometry PR (platelets; 3 h, All): 6.5 ± 4.1
Flow Cytometry IPR (platelets; 3 h, Ticagrelor at 0.5 h): 87 ± 10
Flow Cytometry PR (platelets; 3 h, Ticagrelor at 0.5 h): 6.8 ± 2.9
Flow Cytometry IPR (platelets; 3 h, Ticagrelor at 1.25 h): 86 ± 16
Flow Cytometry PR (platelets; 3 h, Ticagrelor at 1.25 h): 6.2 ± 5.3
Flow Cytometry IPR (platelets; 4 h, All): 84 ± 15
Flow Cytometry PR (platelets; 4 h, All): 7.5 ± 6.2
Flow Cytometry IPR (platelets; 4 h, Ticagrelor at 0.5 h): 90 ± 4
Flow Cytometry PR (platelets; 4 h, Ticagrelor at 0.5 h): 5.5 ± 2.4
Flow Cytometry IPR (platelets; 4 h, Ticagrelor at 1.25 h): 78 ± 20
Flow Cytometry PR (platelets; 4 h, Ticagrelor at 1.25 h): 9.5 ± 8.2
Flow Cytometry IPR (platelets; reference 5.25 h, All): 91 ± 6
Flow Cytometry PR (platelets; reference 5.25 h, All): 5 ± 3.6
Flow Cytometry IPR (platelets; [1]): 91 ± 4
Flow Cytometry PR (platelets; [1]): 5.5 ± 3.9
Flow Cytometry IPR (platelets; [2]): 91 ± 7
Flow Cytometry PR (platelets; [2]): 4.5 ± 2
VerifyNow IPR (P2Y12 receptor; 2.25 h, All): 89 ± 11
VerifyNow PRU (P2Y12 receptor; 2.25 h, All): 28 ± 28 PRU
VerifyNow IPR (P2Y12 receptor; 2.25 h, Ticagrelor at 0.5 h): 90 ± 10
VerifyNow PRU (P2Y12 receptor; 2.25 h, Ticagrelor at 0.5 h): 28 ± 27 PRU
VerifyNow IPR (P2Y12 receptor; 2.25 h, Ticagrelor at 1.25 h): 89 ± 14
VerifyNow PRU (P2Y12 receptor; 2.25 h, Ticagrelor at 1.25 h): 28 ± 32 PRU
VerifyNow IPR (P2Y12 receptor; 2.5 h, All): 70 ± 31
VerifyNow PRU (P2Y12 receptor; 2.5 h, All): 76 ± 79 PRU
VerifyNow IPR (P2Y12 receptor; 2.5 h, Ticagrelor at 0.5 h): 78 ± 24
VerifyNow PRU (P2Y12 receptor; 2.5 h, Ticagrelor at 0.5 h): 60 ± 64 PRU
VerifyNow IPR (P2Y12 receptor; 2.5 h, Ticagrelor at 1.25 h): 62 ± 37
VerifyNow PRU (P2Y12 receptor; 2.5 h, Ticagrelor at 1.25 h): 93 ± 94 PRU
VerifyNow IPR (P2Y12 receptor; 2.75 h, All): 83 ± 21
VerifyNow PRU (P2Y12 receptor; 2.75 h, All): 44 ± 50 PRU
VerifyNow IPR (P2Y12 receptor; 2.75 h, Ticagrelor at 0.5 h): 84 ± 15
VerifyNow PRU (P2Y12 receptor; 2.75 h, Ticagrelor at 0.5 h): 44 ± 40 PRU
VerifyNow IPR (P2Y12 receptor; 2.75 h, Ticagrelor at 1.25 h): 82 ± 27
VerifyNow PRU (P2Y12 receptor; 2.75 h, Ticagrelor at 1.25 h): 44 ± 62 PRU
VerifyNow IPR (P2Y12 receptor; 3 h, All): 88 ± 19
VerifyNow PRU (P2Y12 receptor; 3 h, All): 31 ± 46 PRU
VerifyNow IPR (P2Y12 receptor; 3 h, Ticagrelor at 0.5 h): 87 ± 16
VerifyNow PRU (P2Y12 receptor; 3 h, Ticagrelor at 0.5 h): 35 ± 42 PRU
VerifyNow IPR (P2Y12 receptor; 3 h, Ticagrelor at 1.25 h): 88 ± 23
VerifyNow PRU (P2Y12 receptor; 3 h, Ticagrelor at 1.25 h): 28 ± 53 PRU
VerifyNow IPR (P2Y12 receptor; 4 h, All): 96 ± 4
VerifyNow PRU (P2Y12 receptor; 4 h, All): 10 ± 10 PRU
VerifyNow IPR (P2Y12 receptor; 4 h, Ticagrelor at 0.5 h): 97 ± 2
VerifyNow PRU (P2Y12 receptor; 4 h, Ticagrelor at 0.5 h): 7.3 ± 4.4 PRU
VerifyNow IPR (P2Y12 receptor; 4 h, Ticagrelor at 1.25 h): 95 ± 5
VerifyNow PRU (P2Y12 receptor; 4 h, Ticagrelor at 1.25 h): 14 ± 14 PRU
VerifyNow IPR (P2Y12 receptor; reference 5.25 h, All): 96 ± 4
VerifyNow PRU (P2Y12 receptor; reference 5.25 h, All): 9.5 ± 9.7 PRU
VerifyNow IPR (P2Y12 receptor; [1]): 97 ± 2
VerifyNow PRU (P2Y12 receptor; [1]): 7.7 ± 5.3 PRU
VerifyNow IPR (P2Y12 receptor; [2]): 96 ± 4
VerifyNow PRU (P2Y12 receptor; [2]): 11 ± 7 PRU
